Reference: US20200222462A1, “METHODS OF TREATMENT USING DECITABINE AND A CD123-TARGETED THERAPY” (priority 2018, published 2020)

Legend:
[1] = system: AML cells; test: CD123 expression in AML cells quantitated by fluorescence-activated cell sorting; assay type: cell-based
[2] = system: AML cell lines Kasumi-1, SKM-1 and MOLM-13; test: Live cell counts by flow cytometry (DAPI exclusion), AML cell lines; assay type: cell-based; settings: for cell numbers (dose dependent decline): day 3, 0.46-3000 nM dosed at 0, 24 and 48 hours
Experimental: (§1) Number of live cells was determined by excluding DAPI+ dead cells in each well. Average of triplicates is presented on the graph.
(§2) SKM1, Kasumi-1 and MOLM-13 cell lines were maintained in 80% RPMI 1640+20% FBS according to manufacturer's instructions. Logarithmically growing SKM1, Kasumi-1 and MOLM-13 cell lines were plated at 7,500 cells per well in 384 well microtiter plates and treated with drugs in triplicate using an acoustic liquid handler using protocol (P.SOP.007.02_Compound Addition Using GBG).
(§3) The following compounds were serially dosed in 24-hour intervals using an acoustic liquid handler. Decitabine, 5-azacytidine and guadecitabine were dosed at 3000, 1000, 333.33, 111.11, 37.04, 12.35, 4.12, 1.37 and 0.46 nM at 0, 24 and 48 hours. In addition, guadecitabine was dosed at 3000, 1000, 333.33, 111.11, 37.04, 12.35, 4.12, 1.37 and 0.46 nM at 0 hours without serial dosing (single dose). The dose range of the compounds was determined by back calculating the clinical dose and corresponding to a plasma concentration at 1.5 hours after standard dosing. The 1000 nM concentration of decitabine is based on the clinical dose of 20 mg/m^2, 1-hour intravenous infusion, one time per day for five consecutive days every 4 weeks and the maximum plasma concentration after standard dosing (1.15 micromolar). Decitabine doses in the study were selected above and below this dose. The 1000 nM concentration of 5-azacytidine is based on the clinical dose of 75 mg/m^2/day for 7 days every 28 days and the plasma concentration at 1.5 hours after standard dosing. 5-Azacytidine doses in the study were selected above and below this dose. Guadecitabine regimen is 60 mg/m^2 given subcutaneously daily on Days 1-5 in 28-day cycles (delayed as needed to allow blood count recovery). The clinically relevant guadecitabine dose is 211 nM. Cells were stained at day 0, day 3 and day 7 following cell plating samples were stained with the antibody panel details below and readout with an lntellicyt iQue Plus flow cytometer.
(§4) Cells were stained using Notable labs no wash protocol number (P.SOP.009.01_Screen Readout Automated), briefly, antibodies are added to cells with an acoustic liquid handler, incubated at 4° C. for 20 minutes and readout with an Intellicyt iQue Plus flow cytometer. Staining Panel for Cell lines: DAPI, CD123, PDL1, CD34, CD33, CD15, CD38. Live cells were gated using FSC/SSC and DAPI exclusion using FlowJo analysis software (BeckmanFLow), and then further defined by cell surface marker expression. Absolute counts or Mean Fluorescence Intensity from triplicate wells were averaged and fold change was calculated with respect to a vehicle-only (DMSO) control.

[3] = system: CD34+CD38+ Multipotent progenitors (MMPs) and CD34+CD38− Hematopoietic Stem Cells (HSCs); test: Live cell counts by flow cytometry, normal donor CD34+ bone marrow cells; settings: for cell counts (dose dependent decline): primary MMPs and HSCs, 0.46-3000 nM
Experimental: as §1
CD34 enriched bone marrow was purchase from AllCells. Fresh (never frozen) cells were plated at 15,000 cells per well in 384 well microtiter plates and treated with drugs in triplicate using an acoustic liquid handler. The following compounds were dosed serial in 24-hour intervals: decitabine, guadecitabine and 5-azacytidine were dosed at 3000, 1000, 333.33, 111.11, 37.04, 12.35, 4.12, 1.37 and 0.46 nM at 0, 24 and 48 hours. In addition, auadecitabine was dosed at 3000, 1000, 333.33, 111.11, 37.04, 12.35, 4.12, 1.37 and 0.46 nM at 0 hours without serial dosing (single dose). Cells were stained at day 0 and day 7 following cell plating samples were stained with the antibody panel details below and readout with an Intellicyt iQue Plus flow cytometer. Cells were stained using Notable labs staining protocol number (P.SOP.009.01_Screen Readout Automated). Staining Panel for Healthy CD34+ Bone Marrow: DAPI, CD45, CD3, CD19, CD16, CD14, CD38, CD33, CD34, CD90, CD123, CD274. Live cells were gated using FSC/SSC and DAPI exclusion using FlowJo analysis software (Beckman Flow), and then further defined by cell surface marker expression. Absolute counts from triplicate wells were averaged and normalized to a vehicle-only (DMSO) control.

[4] = system: SKM1 cell line; test: CD123 MFI by flow cytometry, SKM1; assay type: cell-based; settings: for CD123 MFI (dose dependent increase): SKM1, 0.46-3000 nM, day 7; for CD123 expression at clinically relevant dose (FIG. 2c): 1000 nM
Experimental: (§5) (c) Fold change in CD123 MFI at 1000 nM clinically relevant decitabine dose (P values are calculated by student Test). Cells are gated on live cells. Blast cells in AML cell lines were defined as CD33 or CD34 positive. Primary HSCs were defined as CD45^dimSSC^lowCD34^highCD38− and multipotent progenitors were defined as CD34^highCD38+, data represents mean of four normal donors and the error bars represent Standard deviation. Fold change in CD123 Mean Fluorescence Intensity (MFI) with respect to DMSO treated cells is presented.
as §2, §3, §4

[5] = system: Kasumi-1; test: CD123 MFI by flow cytometry, Kasumi-1; assay type: cell-based; settings: 0.46-3000 nM, day 7
Experimental: as §5
(§6) SKM1, Kasumi-1 and MOLM-13 cell lines were maintained in 80% RPMI 1640+20% FBS according to manufacturer's instructions. […]
(§7) The following compounds were serially dosed in 24-hour intervals using an acoustic liquid handler. […] The dose range of the compounds was determined by back calculating the clinical dose and corresponding to a plasma concentration at 1.5 hours after standard dosing. […] Cells were stained at day 0, day 3 and day 7 following cell plating samples were stained with the antibody panel details below and readout with an lntellicyt iQue Plus flow cytometer.
(§8) Cells were stained using Notable labs no wash protocol number (P.SOP.009.01_Screen Readout Automated), briefly, antibodies are added to cells with an acoustic liquid handler, incubated at 4° C. for 20 minutes and readout with an Intellicyt iQue Plus flow cytometer. […]

[6] = system: MOLM-13; test: CD123 MFI by flow cytometry, MOLM-13; assay type: cell-based; settings: 0.46-3000 nM, day 7
Experimental: as §5, §6, §7, §8

[7] = system: primary CD34+ Bone marrow cells; test: CD123 MFI by flow cytometry, primary CD34+ bone marrow cells (overall); assay type: cell-based; settings: for CD123 MFI / expression in primary bone marrow cells: four normal donors, dose range
Experimental: as §5
(§9) CD34 enriched bone marrow was purchase from AllCells.

[8] = system: PD-L1 expression in AML cell lines and primary bone marrow HSCs/MMPs; test: PD-L1 expression by flow cytometry, AML cell lines and primary bone marrow cells; assay type: cell-based; settings: any dose; all cell lines and primary bone marrow HSCs or MMPs
Text: Cells are gated on live cells. Blast cells in AML cell lines were defined as CD33 or CD34 positive. Primary HSCs were defined as CD45^dimSSC^lowCD34^highCD38− and multipotent progenitors were defined as CD34^highCD38+, data represents mean of four normal donors and the error bars represent Standard deviation.
as §2
as §7, with “handler. Decitabine, 5-azacytidine and guadecitabine were dosed at 3000, 1000, 333.33, 111.11, 37.04, 12.35, 4.12, 1.37 and 0.46 nM at 0, 24 and 48 hours.” for “handler.”
Cells were stained using Notable labs no wash protocol number (P.SOP.009.01_Screen Readout Automated), briefly, antibodies are added to cells with an acoustic liquid handler, incubated at 4° C. for 20 minutes and readout with an Intellicyt iQue Plus flow cytometer. […] Absolute counts or Mean Fluorescence Intensity from triplicate wells were averaged and fold change was calculated with respect to a vehicle-only (DMSO) control.
CD34 enriched bone marrow was purchase from AllCells. […] Cells were stained at day 0 and day 7 following cell plating samples were stained with the antibody panel details below and readout with an Intellicyt iQue Plus flow cytometer. Cells were stained using Notable labs staining protocol number (P.SOP.009.01_Screen Readout Automated). […]

[9] = system: Hematopoietic stem cells (HSCs); test: CD123 expression by flow cytometry, primary hematopoietic stem cells; assay type: cell-based; settings: for CD123 expression at clinically relevant dose (FIG. 2c): HSC; for increase in CD123 expression vs DMSO: HSCs
Text: (§10) […] Cells are gated on live cells. Blast cells in AML cell lines were defined as CD33 or CD34 positive. Primary HSCs were defined as CD45^dimSSC^lowCD34^highCD38− and multipotent progenitors were defined as CD34^highCD38+, data represents mean of four normal donors and the error bars represent Standard deviation. Fold change in CD123 Mean Fluorescence Intensity (MFI) with respect to DMSO treated cells is presented.
as §9

[10] = system: CD38+CD34+ MMPs; test: CD123 expression by flow cytometry, primary multipotent progenitors; assay type: cell-based; settings: for average increase in CD123 expression vs DMSO / CD123 expression at clinically relevant dose (FIG. 2c): MMPs
Text: as §10, §9

[11] = system: AML patients
Experimental: Fifteen AML patients treated in our ongoing first in human phase 1 clinical trial (NCT0262355) evaluating CD123CAR T cells in patients with relapsed or refractory AML or blastic plasmacytoid dendritic cell neoplasm (BPDCN) received lymphodepletion prior to CAR T cell infusion on day 0. All received fludarabine (25-30 mg/m2/day) and cyclophosphamide (300-500 mg/m2/day). Both were administered daily from days −5 to −3. Eight also received decitabine (20 mg/m2/day) given daily for 5 days from days −7 to −3 or daily for 3 days from days −5 to −3.

[12] = system: AML blasts; settings: in vitro; reported; cited from earlier work
[13] = clinical dose 20 mg/m^2, 1-hour intravenous infusion, once per day for five consecutive days every 4 weeks; cited from earlier work
[14] = 5 day treatment, decitabine p<0.001, azacitidine p<0.05

Row | Compound | CD123 expression in AML cells [1, 14] | cell numbers (dose dependent decline) [2] | cell counts (dose dependent decline) [3] | CD123 MFI (dose dependent increase) [4] | CD123 MFI / expression in primary bone marrow cells [7] | PD-L1 expression [8] | CD123 expression at clinically relevant dose (FIG. 2c) [4] | CD123 expression at clinically relevant dose (FIG. 2c) ([9]; 1000 nM) | CD123 expression at clinically relevant dose (FIG. 2c) ([10]; 1000 nM) | other results
1 | Nc1ncn([C@@H]2O[C@H](CO)[C@@H](O)[C@H]2O)c(=O)n1 [5-azacytidine] | significant increase | dose dependent decline | dose dependent decline | did not impact | highly variable | no impact | – | – | – | CD123 MFI (dose dependent increase) [5]: did not impact; CD123 MFI (dose dependent increase) [6]: did not impact
2 | CN[C@@H]1C[C@H]2O[C@@](C)([C@@H]1OC)n1c3ccccc3c3c4c(c5c6ccccc6n2c5c31)C(=O)NC4 [Staurosporine] | – | – | – | – | – | – | – | – | – | viable cells ([2]; positive control for cell death, all cell line groups): significant reductions; viable cells ([3]; positive control for cell death, primary cell groups): significant reductions
3 | Nc1ncn([C@H]2C[C@H](O)[C@@H](CO)O2)c(=O)n1 [decitabine] | significant increase | dose dependent decline | dose dependent decline | upregulates | upregulates | no impact | significantly enhanced | significantly enhanced | significantly enhanced | CD123 expression in AML cells ([1]; 3 day treatment, p<0.001): significant increase; cell death at high dose ([3]; 3000 nM, FIG. 1b): cell death; CD123 MFI (dose dependent increase) ([4]; listed as Decitabine): dose dependent increase; increase in CD123 expression vs DMSO ([9]; 111.11 nM): 1.3 fold; increase in CD123 expression vs DMSO ([9]; 333.33 nM): 1.6 fold; increase in CD123 expression vs DMSO ([9]; 1000 nM): 1.4 fold; average increase in CD123 expression vs DMSO ([10]; 111.11 nM): 1.4 fold; average increase in CD123 expression vs DMSO ([10]; 333.33 nM): 1.4 fold; average increase in CD123 expression vs DMSO ([10]; 1000 nM): 1.3 fold; CD123 MFI with respect to DMSO treated cells ([7]; 3000 nM, FIG. 2b): no change; CD123 MFI in primary CD34+ bone marrow cells ([7]; clinically relevant dose of 1000 nM): increase; treatment related adverse events in decitabine treated group ([11]; 8 patients with decitabine vs 7 without): not observed increased treatment related adverse events; tolerability / dose limiting toxicities ([11]; AML patients, fludarabine and cyclophosphamide lymphodepletion, eight also decitabine 20 mg/m2/day, CAR T infusion day 0): well tolerated; CD123 expression in AML blasts [12]: upregulate; maximum plasma concentration after standard dosing [13]: 1.15 µM
4 | Nc1ncn([C@H]2C[C@H](OP(=O)(O)OC[C@H]3O[C@@H](n4cnc5c(=O)[nH]c(N)nc54)C[C@@H]3O)[C@@H](CO)O2)c(=O)n1 [guadecitabine] | – | dose dependent decline | – | increase in CD123 MFI in a dose dependent manner | – | no impact | significantly enhanced | significantly enhanced | significantly enhanced | change in CD123 expression ([9]; normal bone marrow HSCs, regardless of the dose): did not show any change; change in CD123 expression ([10]; normal bone marrow MMPs, regardless of the dose): did not show any change
